Source: US12679843B2, “Pyrrolopyrimidine amines as complement inhibitors” (BioCryst Pharmaceuticals, Inc., priority 2020, dated 2026)

molecular target: Factor D (Homo sapiens, UniProt P00746); assay: Factor D esterolytic assay (Z-Lys-SBzl thioester substrate, DTNB, 405 nm); type: biochemical; settings: substrate Z-Lys-SBzl 1.29 mM, 100 mM HEPES, 500 mM NaCl, pH 7.5, 10% DMSO, tested a minimum of three times
Outline: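 Human Factor D hydrolysis of Z-Lys-SBzl (1.29 mM) monitored at 405 nm via DTNB thiol detection for 600 s, 690 nm background subtracted. Buffer 100 mM HEPES, 500 mM NaCl, pH 7.5, 10% DMSO; substrate added immediately or after room-temperature preincubation. IC50 from percent inhibition of rate, at least three tests.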

Factor D, sequence (P00746 26-253): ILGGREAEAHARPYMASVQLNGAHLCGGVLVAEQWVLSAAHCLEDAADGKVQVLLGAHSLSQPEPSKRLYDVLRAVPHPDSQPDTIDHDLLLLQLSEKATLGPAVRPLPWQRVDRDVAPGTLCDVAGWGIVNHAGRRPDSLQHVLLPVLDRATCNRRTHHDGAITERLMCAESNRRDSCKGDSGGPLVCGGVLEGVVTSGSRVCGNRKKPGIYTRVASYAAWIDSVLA

| IC50 [nM] | Structure (SMILES) |
| --- | --- |
| < 100 | Cc1cc(C(F)(F)F)nc2c3c(N)ncnc3n(CC(=O)N3[C@H](C(=O)Nc4cccc(Br)n4)C[C@@]4(C)C[C@@H]34)c12 [Compound 363a, (1R,3S,5R)-2-(2-(4-amino-8-methyl-6-(trifluoromethyl)-9H-pyrido[2′,3′:4,5]pyrrolo[2,3-d]pyrimidin-9-yl)acetyl)-N-(6-bromopyridin-2-yl)-5-methyl-2-azabicyclo[3.1.0]hexane-3-carboxamide] |
| < 100 | Cc1ncc(NC(=O)[C@@H]2C[C@@]3(C)C[C@H]3N2C(=O)Cn2c3ncnc(N)c3c3cc(C(F)(F)F)cc(C)c32)nc1Br [Compound 364d, (1R,3S,5R)-2-(2-(4-amino-8-methyl-6-(trifluoromethyl)-9H-pyrimido[4,5-b]indol-9-yl)acetyl)-N-(6-bromo-5-methylpyrazin-2-yl)-5-methyl-2-azabicyclo[3.1.0]hexane-3-carboxamide] |
| < 100 | Cc1ncc(NC(=O)[C@@H]2C[C@@]3(C)C[C@H]3N2C(=O)Cn2c3ncnc(N)c3c3cc(C(F)(F)F)cc(C)c32)nc1Cl [Compound 364e, (1R,3S,5R)-2-(2-(4-amino-8-methyl-6-(trifluoromethyl)-9H-pyrimido[4,5-b]indol-9-yl)acetyl)-N-(6-chloro-5-methylpyrazin-2-yl)-5-methyl-2-azabicyclo[3.1.0]hexane-3-carboxamide] |
| < 100 | Cc1ccc(Cl)nc1NC(=O)[C@@H]1C[C@@H](F)CN1C(=O)Cn1c2ncnc(N)c2c2cc(C(F)(F)F)cc(C)c21 [Compound 365c, (2S,4R)-1-(2-(4-amino-8-methyl-6-(trifluoromethyl)-9H-pyrimido[4,5-b]indol-9-yl)acetyl)-N-(6-chloro-3-methylpyridin-2-yl)-4-fluoropyrrolidine-2-carboxamide] |
| < 100 | Cc1cc(F)c(Br)nc1NC(=O)[C@@H]1C[C@@H](F)CN1C(=O)Cn1c2ncnc(N)c2c2cc(C(F)(F)F)cc(C)c21 [Compound 366c, (2S,4R)-1-(2-(4-amino-8-methyl-6-(trifluoromethyl)-9H-pyrimido[4,5-b]indol-9-yl)acetyl)-N-(6-bromo-5-fluoro-3-methylpyridin-2-yl)-4-fluoropyrrolidine-2-carboxamide] |
| < 100 | COc1cc2c(cc1C(F)(F)F)c1c(N)ncnc1n2CC(=O)N1[C@@H]2C[C@@H]2C[C@H]1C(=O)Nc1cccc(Br)n1 [Compound 367g, (1R,3S,5R)-2-(2-(4-amino-7-methoxy-6-(trifluoromethyl)-9H-pyrimido[4,5-b]indol-9-yl)acetyl)-N-(6-bromopyridin-2-yl)-2-azabicyclo[3.1.0]hexane-3-carboxamide] |
| < 100 | COc1cc2c(cc1C(F)(F)F)c1c(N)ncnc1n2CC(=O)N1[C@H](C(=O)Nc2cccc(Br)n2)C[C@@]2(C)C[C@@H]12 [Compound 368a, (1R,3S,5R)-2-(2-(4-amino-7-methoxy-6-(trifluoromethyl)-9H-pyrimido[4,5-b]indol-9-yl)acetyl)-N-(6-bromopyridin-2-yl)-5-methyl-2-azabicyclo[3.1.0]hexane-3-carboxamide] |
| < 100 | Nc1ncnc2c1c1cc(C(F)(F)F)cc(F)c1n2CC(=O)N1[C@@H]2C[C@@H]2C[C@H]1C(=O)Nc1cccc(Br)n1 [Compound 369g, (1R,3S,5R)-2-(2-(4-amino-8-fluoro-6-(trifluoromethyl)-9H-pyrimido[4,5-b]indol-9-yl)acetyl)-N-(6-bromopyridin-2-yl)-2-azabicyclo[3.1.0]hexane-3-carboxamide] |
| < 100 | Cc1cc(-c2ccco2)cc2c3c(N)ncnc3n(CC(=O)N3[C@@H]4C[C@@H]4C[C@H]3C(=O)Nc3cccc(Br)n3)c12 [Compound 370a, (1R,3S,5R)-2-(2-(4-amino-6-(furan-2-yl)-8-methyl-9H-pyrimido[4,5-b]indol-9-yl)acetyl)-N-(6-bromopyridin-2-yl)-2-azabicyclo[3.1.0]hexane-3-carboxamide] |
| 100 to 1000 | Nc1ncnc2c1c1nc(-c3cccnc3)ccc1n2CC(=O)N1[C@@H]2C[C@@H]2C[C@H]1C(=O)Nc1cccc(Br)n1 [Compound 371c, (1R,3S,5R)-2-(2-(4-amino-6-(pyridin-3-yl)-9H-pyrido[2′,3′:4,5]pyrrolo[2,3-d]pyrimidin-9-yl)acetyl)-N-(6-bromopyridin-2-yl)-2-azabicyclo[3.1.0]hexane-3-carboxamide] |
| 100 to 1000 | C[C@@]12C[C@@H](C(=O)Nc3cccc(Br)n3)N(C(=O)Cn3c4ccc(-c5cccnc5)nc4c4c(N)ncnc43)[C@@H]1C2 [Compound 372a, (1R,3S,5R)-2-(2-(4-amino-6-(pyridin-3-yl)-9H-pyrido[2′,3′:4,5]pyrrolo[2,3-d]pyrimidin-9-yl)acetyl)-N-(6-bromopyridin-2-yl)-5-methyl-2-azabicyclo[3.1.0]hexane-3-carboxamide] |
| 100 to 1000 | C[C@@]12C[C@@H](C(=O)Nc3cccc(Br)n3)N(C(=O)Cn3c4ccc(-c5ccncc5)nc4c4c(N)ncnc43)[C@@H]1C2 [Compound 373a, (1R,3S,5R)-2-(2-(4-amino-6-(pyridin-4-yl)-9H-pyrido[2′,3′:4,5]pyrrolo[2,3-d]pyrimidin-9-yl)acetyl)-N-(6-bromopyridin-2-yl)-5-methyl-2-azabicyclo[3.1.0]hexane-3-carboxamide] |
| < 100 | COc1cc2c(cc1Br)c1c(N)ncnc1n2CC(=O)N1[C@@H]2C[C@@H]2C[C@H]1C(=O)Nc1cccc(Br)n1 [Compound 374g, (1R,3S,5R)-2-(2-(4-amino-6-bromo-7-methoxy-9H-pyrimido[4,5-b]indol-9-yl)acetyl)-N-(6-bromopyridin-2-yl)-2-azabicyclo[3.1.0]hexane-3-carboxamide] |
| < 100 | COc1cc2c(cc1Br)c1c(N)ncnc1n2CC(=O)N1[C@H](C(=O)Nc2cccc(Br)n2)C[C@@]2(C)C[C@@H]12 [Compound 375a, (1R,3S,5R)-2-(2-(4-amino-6-bromo-7-methoxy-9H-pyrimido[4,5-b]indol-9-yl)acetyl)-N-(6-bromopyridin-2-yl)-5-methyl-2-azabicyclo[3.1.0]hexane-3-carboxamide] |
| < 100 | Nc1ncnc2c1c1cc(Br)cc(F)c1n2CC(=O)N1[C@@H]2C[C@@H]2C[C@H]1C(=O)Nc1cccc(Br)n1 [Compound 376g, (1R,3S,5R)-2-(2-(4-amino-6-bromo-8-fluoro-9H-pyrimido[4,5-b]indol-9-yl)acetyl)-N-(6-bromopyridin-2-yl)-2-azabicyclo[3.1.0]hexane-3-carboxamide] |
| < 100 | C[C@@]12C[C@@H](C(=O)Nc3cccc(Br)n3)N(C(=O)Cn3c4ncnc(N)c4c4cc(Br)cc(F)c43)[C@@H]1C2 [Compound 377a, (1R,3S,5R)-2-(2-(4-amino-6-bromo-8-fluoro-9H-pyrimido[4,5-b]indol-9-yl)acetyl)-N-(6-bromopyridin-2-yl)-5-methyl-2-azabicyclo[3.1.0]hexane-3-carboxamide] |
| < 100 | Cc1cc(-c2ccccn2)cc2c3c(N)ncnc3n(CC(=O)N3[C@H](C(=O)Nc4cccc(Br)n4)C[C@@]4(C)C[C@@H]34)c12 [Compound 378c, (1R,3S,5R)-2-(2-(4-amino-8-methyl-6-(pyridin-2-yl)-9H-pyrimido[4,5-b]indol-9-yl)acetyl)-N-(6-bromopyridin-2-yl)-5-methyl-2-azabicyclo[3.1.0]hexane-3-carboxamide] |
| < 100 | Cc1cc2c(cc1Br)c1c(N)ncnc1n2CC(=O)N1[C@@H]2C[C@@H]2C[C@H]1C(=O)Nc1cccc(Br)n1 [Compound 379h, (1R,3S,5R)-2-(2-(4-amino-6-bromo-7-methyl-9H-pyrimido[4,5-b]indol-9-yl)acetyl)-N-(6-bromopyridin-2-yl)-2-azabicyclo[3.1.0]hexane-3-carboxamide] |
| < 100 | Cc1cc2c(cc1Br)c1c(N)ncnc1n2CC(=O)N1[C@H](C(=O)Nc2cccc(Br)n2)C[C@@]2(C)C[C@@H]12 [Compound 380a, (1R,3S,5R)-2-(2-(4-amino-6-bromo-7-methyl-9H-pyrimido[4,5-b]indol-9-yl)acetyl)-N-(6-bromopyridin-2-yl)-5-methyl-2-azabicyclo[3.1.0]hexane-3-carboxamide] |
| < 100 | Cc1cc2c(cc1F)c1c(N)ncnc1n2CC(=O)N1[C@@H]2C[C@@H]2C[C@H]1C(=O)Nc1cccc(Br)n1 [Compound 381g, (1R,3S,5R)-2-(2-(4-amino-6-fluoro-7-methyl-9H-pyrimido[4,5-b]indol-9-yl)acetyl)-N-(6-bromopyridin-2-yl)-2-azabicyclo[3.1.0]hexane-3-carboxamide] |
| < 100 | Cc1cc2c(cc1F)c1c(N)ncnc1n2CC(=O)N1[C@H](C(=O)Nc2cccc(Br)n2)C[C@@]2(C)C[C@@H]12 [Compound 382a, (1R,3S,5R)-2-(2-(4-amino-6-fluoro-7-methyl-9H-pyrimido[4,5-b]indol-9-yl)acetyl)-N-(6-bromopyridin-2-yl)-5-methyl-2-azabicyclo[3.1.0]hexane-3-carboxamide] |
| < 100 | COc1cc2c(cc1F)c1c(N)ncnc1n2CC(=O)N1[C@@H]2C[C@@H]2C[C@H]1C(=O)Nc1cccc(Br)n1 [Compound 383g, (1R,3S,5R)-2-(2-(4-amino-6-fluoro-7-methoxy-9H-pyrimido[4,5-b]indol-9-yl)acetyl)-N-(6-bromopyridin-2-yl)-2-azabicyclo[3.1.0]hexane-3-carboxamide] |
| < 100 | Cc1cc2c3c(N)ncnc3n(CC(=O)N3[C@@H]4C[C@@H]4C[C@H]3C(=O)Nc3cccc(Br)n3)c2cc1F [Compound 384g, (1R,3S,5R)-2-(2-(4-amino-7-fluoro-6-methyl-9H-pyrimido[4,5-b]indol-9-yl)acetyl)-N-(6-bromopyridin-2-yl)-2-azabicyclo[3.1.0]hexane-3-carboxamide] |
| < 100 | Cc1cc2c3c(N)ncnc3n(CC(=O)N3[C@H](C(=O)Nc4cccc(Br)n4)C[C@@]4(C)C[C@@H]34)c2cc1F [Compound 385a, (1R,3S,5R)-2-(2-(4-amino-7-fluoro-6-methyl-9H-pyrimido[4,5-b]indol-9-yl)acetyl)-N-(6-bromopyridin-2-yl)-5-methyl-2-azabicyclo[3.1.0]hexane-3-carboxamide] |
